Results as given in patent US9290551B2, “Compounds for treating papilloma virus infection” (NanoVir, LLC, priority 2012, dated 2016).

Tested on: HPV 16
Assay: HPV 16 episome DNA levels in W12E cells by Q-PCR (Taqman)
Type: cell-based, Human papilloma virus
Conditions: for IC50: effective (pseudo) IC50, 50% reduction in HPV DNA relative to vehicle (0.1% DMSO), read-out: HPV-16 IC50
Procedure: Cells maintaining HPV 16 DNA were cultured for 72 hours in the presence of cidofovir, interferon γ or polyamide. Viral DNA was then quantified using real-time PCR and compared to vehicle (DMSO)-treated control cultures.
Compounds were initially tested for effects on HPV 16 episome DNA levels in W12E cells by Q-PCR (Taqman™) over 3 concentration ranges (0.1, 1 and 10 μM). W12E cells are a cervical keratinocyte cell line originally identified by M. Stanley (Cambridge University), and later optimized and provided by P. Lambert (U. of Wisconsin). […] In all cases (initial tests and follow-up IC50 tests), dose testing was performed in triplicate. […] Furthermore, all experiments were conducted in triplicate, multiple times. The data were then combined, pseudo or effective IC50 values calculated, and variance determined to reveal the fit of the data to the model and its reliability.
Keratinocytes that maintain HPV 16 episomes were treated with increasing concentrations of polyamides.

Molecule | antiviral activity in this study | IC50 [µM]
CN(CCCN)CCCNC(=O)CCNC(=O)c1cc(NC(=O)c2cc(NC(=O)c3cc(NC(=O)c4cc(NC(=O)c5cc(NC(=O)[C@H](N)CCNC(=O)c6cc(NC(=O)c7cc(NC(=O)c8cc(NC(=O)c9cc(NC(=O)c%10nccn%10C)cn9C)cn8C)cn7C)cn6C)cn5C)cn4C)cn3C)cn2C)cn1C [Polyamide 1006, ImPPPPγNH2PPPPPβTa] | inactive | > 10
CN(C)CCCNC(=O)CCNC(=O)CCNC(=O)c1cc(NC(=O)c2cc(NC(=O)c3cc(NC(=O)CCNC(=O)c4cc(NC(=O)c5cc(NC(=O)c6cc(NC(=O)CCCNC(=O)c7cc(NC(=O)c8cc(NC(=O)c9cc(NC(=O)CCNC(=O)c%10cc(NC(=O)c%11cc(NC(=O)c%12cc(NC(=O)c%13nccn%13C)cn%12C)cn%11C)cn%10C)cn9C)cn8C)cn7C)cn6C)cn5C)cn4C)cn3C)cn2C)cn1C [Polyamide 1025, ImPPPβPPPγPPPβPPPββDp] |  | > 10
CN(C)CCCNC(=O)CCNC(=O)c1cc(NC(=O)c2cc(NC(=O)c3cc(NC(=O)c4cc(NC(=O)c5cc(NC(=O)CCCNC(=O)c6cc(NC(=O)c7nc(NC(=O)c8nc(NC(=O)CCNC(=O)c9nccn9C)cn8C)cn7C)cn6C)cn5C)cn4C)cn3C)cn2C)cn1C [Polyamide 1016, ImβIIPγPPPPPβDp] |  | > 10
CN(C)CCCNC(=O)CCNC(=O)c1cc(NC(=O)c2cc(NC(=O)c3cc(NC(=O)c4cc(NC(=O)c5cc(NC(=O)CCCNC(=O)c6cc(NC(=O)c7cc(NC(=O)c8cc(NC(=O)c9cc(NC(=O)c%10nccn%10C)cn9C)cn8C)cn7C)cn6C)cn5C)cn4C)cn3C)cn2C)cn1C [Polyamide 1010, ImPPPPγPPPPPβDp] |  | > 10
CN(C)CCCNC(=O)CCNC(=O)c1cc(NC(=O)c2cc(NC(=O)c3cc(NC(=O)c4cc(NC(=O)c5cc(NC(=O)c6cc(NC=O)cn6C)cn5C)cn4C)cn3C)cn2C)cn1C [Polyamide 1039, OHC-PPPPPPβDp] |  | > 10
CN(CCCN)CCCNC(=O)CCNC(=O)c1cc(NC(=O)c2cc(NC(=O)c3cc(NC(=O)c4cc(NC(=O)c5cc(NC(=O)CCCNC(=O)c6cc(NC(=O)c7cc(NC(=O)c8cc(NC(=O)c9cc(NC(=O)c%10nccn%10C)cn9C)cn8C)cn7C)cn6C)cn5C)cn4C)cn3C)cn2C)cn1C [Polyamide 1005, ImPPPPγPPPPPβTa] |  | > 10
CN(C)CCCNC(=O)CCNC(=O)c1cc(NC(=O)c2cc(NC(=O)c3cc(NC(=O)CCNC(=O)c4cc(NC(=O)c5cc(NC(=O)c6cc(NC(=O)CCCNC(=O)c7cc(NC(=O)c8cc(NC(=O)CCNC(=O)c9cc(NC(=O)c%10cc(NC(=O)c%11cc(NC(=O)c%12nccn%12C)cn%11C)cn%10C)cn9C)cn8C)cn7C)cn6C)cn5C)cn4C)cn3C)cn2C)cn1C [Polyamide 1002, ImPPPβPPγPPPβPPPβDp] |  | > 10
CN(C)CCCNC(=O)CCNC(=O)c1cc(NC(=O)c2cc(NC(=O)c3cc(NC(=O)c4nc(NC(=O)CCCNC(=O)c5cc(NC(=O)c6nc(NC(=O)c7nc(NC(=O)c8nccn8C)cn7C)cn6C)cn5C)cn4C)cn3C)cn2C)cn1C [Polyamide 1012, ImIIPγIPPPβDp] |  | > 10
CN(C)CCCNC(=O)CCNC(=O)c1cc(NC(=O)c2cc(NC(=O)c3cc(NC(=O)CCNC(=O)c4cc(NC(=O)c5cc(NC(=O)c6cc(NC(=O)CCNC(=O)c7cc(NC(=O)CCNC(=O)CCCNC(=O)c8nc(NC(=O)c9cc(NC(=O)c%10cc(NC(=O)CCNC(=O)c%11cc(NC(=O)c%12nc(NC(=O)c%13cc(NC(=O)CCNC(=O)c%14cc(NC(=O)c%15cc(NC(=O)c%16nccn%16C)cn%15C)cn%14C)cn%13C)cn%12C)cn%11C)cn%10C)cn9C)cn8C)cn7C)cn6C)cn5C)cn4C)cn3C)cn2C)cn1C [Polyamide 1041, ImPPβPIPβPPIγβPβPPPβPPPβDp] |  | > 10
ImPPPPγPPPPPβTa-BOFLX [Polyamide 1008] |  | > 10
CN(C)CCCNC(=O)CCNC(=O)c1cc(NC(=O)c2nc(NC(=O)c3cc(NC(=O)c4cc(NC(=O)c5nc(NC(=O)CCCNC(=O)c6cc(NC(=O)c7cc(NC(=O)c8nc(NC(=O)CCNC(=O)c9nccn9C)cn8C)cn7C)cn6C)cn5C)cn4C)cn3C)cn2C)cn1C [Polyamide 1018, ImβIPPγIPPIPβDp] |  | > 10
CN(C)CCCNC(=O)CCNC(=O)c1cc(NC(=O)c2cc(NC(=O)c3cc(NC(=O)c4cc(NC(=O)CCCNC(=O)c5nc(NC(=O)c6cc(NC(=O)c7cc(NC(=O)c8nccn8C)cn7C)cn6C)cn5C)cn4C)cn3C)cn2C)cn1C [Polyamide 1011, ImPPIγPPPPβDp] |  | > 10
CN(C)CCCNC(=O)CCNC(=O)c1cc(NC(=O)c2cc(NC(=O)c3cc(NC(=O)c4nc(NC(=O)CCCNC(=O)c5cc(NC(=O)c6nc(NC(=O)CCNC(=O)c7nccn7C)cn6C)cn5C)cn4C)cn3C)cn2C)cn1C [Polyamide 1014, ImβIPγIPPPβDp] |  | > 10
CN(C)CCCNC(=O)CCNC(=O)c1cc(NC(=O)c2cc(NC(=O)c3nc(NC(=O)c4cc(NC(=O)CCCNC(=O)c5nc(NC(=O)c6cc(NC(=O)c7nc(NC(=O)c8nccn8C)cn7C)cn6C)cn5C)cn4C)cn3C)cn2C)cn1C [Polyamide 1021, ImIPIγPIPPβDp] |  | > 10
CN(C)CCCNC(=O)CCNC(=O)c1cc(NC(=O)c2cc(NC(=O)c3cc(NC(=O)c4cc(NC(=O)CCCNC(=O)c5cc(NC(=O)c6nc(NC(=O)CCNC(=O)c7nccn7C)cn6C)cn5C)cn4C)cn3C)cn2C)cn1C [Polyamide 1015, ImβIPγPPPPβDp] |  | > 10
CN(C)CCCNC(=O)CCNC(=O)c1cc(NC(=O)c2cc(NC(=O)c3cc(NC(=O)c4cc(NC=O)cn4C)cn3C)cn2C)cn1C [Polyamide 1038, OHC-PPPPβDp] |  | > 10
CN(C)CCCNC(=O)CCNC(=O)c1cc(NC(=O)c2nc(NC(=O)c3nc(NC(=O)c4cc(NC(=O)CCCNC(=O)c5nc(NC(=O)c6cc(NC(=O)c7cc(NC(=O)c8nccn8C)cn7C)cn6C)cn5C)cn4C)cn3C)cn2C)cn1C [Polyamide 1017, ImPPIγPIIPβDp] |  | > 10
CN(C)CCCNC(=O)c1cc(NC(=O)c2cc(NC(=O)CCNC(=O)c3cc(NC(=O)c4cc(NC(=O)c5cc(NC(=O)CCNC(=O)c6cc(NC(=O)c7cc(NC(=O)CCCNC(=O)CCNC(=O)c8cc(NC(=O)c9cc(NC(=O)CCNC(=O)c%10cc(NC(=O)c%11cc(NC(=O)c%12cc(NC(=O)c%13nccn%13C)cn%12C)cn%11C)cn%10C)cn9C)cn8C)cn7C)cn6C)cn5C)cn4C)cn3C)cn2C)cn1C [Polyamide 1056, ImPPPβPPβγPPβPPPβPPDp] |  | > 10
CN(C)CCCNC(=O)CCNC(=O)c1cc(NC(=O)c2cc(NC(=O)c3nc(NC(=O)c4cc(NC(=O)c5nc(NC(=O)CCCNC(=O)c6cc(NC(=O)c7nc(NC(=O)c8cc(NC(=O)c9cc(NC(=O)c%10nccn%10C)cn9C)cn8C)cn7C)cn6C)cn5C)cn4C)cn3C)cn2C)cn1C [Polyamide 1019, ImPPIPγIPIPPβDp] |  | > 10
CN(C)CCCNC(=O)CCNC(=O)c1cc(NC(=O)c2nc(NC(=O)c3cc(NC(=O)c4cc(NC(=O)CCCNC(=O)c5cc(NC(=O)c6cc(NC(=O)c7cc(NC(=O)c8nccn8C)cn7C)cn6C)cn5C)cn4C)cn3C)cn2C)cn1C [Polyamide 1013, ImPPPγPPIPβDp] |  | > 10
ImPPPPγPPPPPβTa-FITC [Polyamide 1007] |  | > 10
